Measurements as given in patent US11058115B2, “Heterocycle derivatives as pesticides” (Bayer Aktiengesellschaft, priority 2017, dated 2021).

How the values were obtained:
Format in all cases: in vivo
[1] = test system: Lucilia cuprina; assay: Lucilia cuprina test; conditions: application rate 100 ppm, L1 larvae, after 2 days
Protocol: Lucilia cuprina Test Solvent: dimethyl sulfoxide To produce a suitable active ingredient formulation, 10 mg of active ingredient are mixed with 0.5 ml of dimethyl sulfoxide, and the concentrate is diluted with water to the desired concentration. About 20 L1 larvae of the Australian sheep blowfly (Lucilia cuprina) are transferred into a test vessel containing minced horsemeat and the active ingredient formulation of the desired concentration. After 2 days, the kill in % is determined. 100% means that all the larvae have been killed; 0% means that no larvae have been killed.

[2] = test system: Ctenocephalides felis; assay: Ctenocephalides felis in vitro contact test with adult cat fleas; conditions: application rate 5 μg/cm^2 (=500 g/ha), after 48 h
Protocol: Ctenocephalides felis—In Vitro Contact Tests with Adult Cat Fleas For the coating of the test tubes, 9 mg of active ingredient are first dissolved in 1 ml of acetone p.a. and then diluted to the desired concentration with acetone p.a. 250 μl of the solution are distributed homogeneously on the inner walls and the base of a 25 ml glass tube by turning and rocking on an orbital shaker (rocking rotation at 30 rpm for 2 h). With 900 ppm of active ingredient solution and internal surface area 44.7 cm^2, given homogeneous distribution, an area-based dose of 5 μg/cm^2 is achieved. After the solvent has evaporated off, the tubes are populated with 5-10 adult cat fleas (Ctenocephalides felis), sealed with a perforated plastic lid and incubated in a horizontal position at room temperature and ambient humidity. After 48 h, efficacy is determined. To this end, the tubes are stood upright and the fleas are knocked to the base of the tube. Fleas which remain motionless at the base or move in an uncoordinated manner are considered to be dead or moribund. […] 100% efficacy means that all the fleas were dead or moribund. 0% efficacy means that no fleas were harmed.

[3] = test system: Myzus persicae; assay: Myzus persicae oral test; conditions: 120 h, after 5 days, read-out: efficacy in %; for pest or weed control at 4 ppm: application rate 4 ppm; for pest or weed control at 20 ppm: application rate 20 ppm; for pest or weed control at 0.8 ppm: application rate 0.8 ppm
Protocol: Myzus persicae—Oral Test [table] To produce a suitable active ingredient formulation, 1 part by weight of active ingredient is dissolved with the stated parts by weight of solvent and made up to the desired concentration with water. 50 μl of the active ingredient formulationare transferred into microtitre plates and made up to a final volume of 200 μl with 150 μl of IPL41 insect medium (33% +15% sugar). Subsequently, the plates are sealed with parafilm, which a mixed population of green peach aphids (Myzus persicae) within a second microtitre plate is able to puncture and imbibe the solution. After 5 days, the efficacy in % is determined. 100% means that all the aphids have been killed; 0% means that no aphids have been killed.

[4] = test system: Ctenocephalides felis; assay: Ctenocephalides felis oral test; conditions: application rate 100 ppm in citrated cattle blood, adult cat fleas, after 2 days
Protocol: Ctenocephalides felis—Oral Test Solvent: dimethyl sulfoxide To produce a suitable active ingredient formulation, 10 mg of active ingredient are mixed with 0.5 ml of dimethyl sulfoxide. Dilution with citrated cattle blood gives the desired concentration. About 20 unfed adult cat fleas (Ctenocephalides felis) are placed into a chamber which is closed at the top and bottom with gauze. A metal cylinder whose bottom end is closed with parafilm is placed onto the chamber. The cylinder contains the blood/active ingredient formulation, which can be imbibed by the fleas through the parafilm membrane. After 2 days, the kill in % is determined. 100% means that all of the fleas have been killed; 0% means that none of the fleas have been killed.

[5] = test system: Musca domestica; assay: Musca domestica test; conditions: adult houseflies, after 2 days
Protocol: Musca domestica Test Solvent: dimethyl sulfoxide To produce a suitable active ingredient formulation, 10 mg of active ingredient are mixed with 0.5 ml of dimethyl sulfoxide, and the concentrate is diluted with water to the desired concentration. Vessels containing a sponge treated with sugar solution and the active ingredient formulation of the desired concentration are populated with 10 adult houseflies (Musca domestica). After 2 days, the kill in % is determined. 100% means that all of the flies have been killed; 0% means that none of the flies have been killed.

[6] = test system: Phaedon cochleariae; assay: Phaedon cochleariae spray test; conditions: foliar, 168 h, application rate 100 g/ha, spray on Chinese cabbage leaf discs, larvae, after 7 days, read-out: efficacy in %
Protocol: Phaedon cochleariae—Spray Test
(§1) To produce a suitable active ingredient formulation, 1 part by weight of active ingredient is dissolved with the specified parts by weight of solvent and made up to the desired concentration with water containing an emulsifier concentration of 1000 ppm. To produce further test concentrations, the formulation is diluted with emulsifier-containing water.
Discs of Chinese cabbage leaves (Brassica pekinensis) are sprayed with an active ingredient formulation of the desired concentration and, after drying, populated with larvae of the mustard beetle (Phaedon cochleariae).
After 7 days, the efficacy in % is determined. 100% means that all the beetle larvae have been killed; 0% means that no beetle larvae have been killed.

[7] = test system: Tetranychus urticae; assay: Tetranychus urticae spray test, OP-resistant; conditions: spray on bean leaf discs, all stages, after 6 days
Protocol: Tetranychus urticae—Spray Test, OP-Resistant
as §1
Discs of bean leaves (Phaseolus vulgaris) infested with all stages of the greenhouse red spider mite (Tetranychus urticae) are sprayed with an active ingredient formulation of the desired concentration.
After 6 days, the efficacy in % is determined. 100% means that all the spider mites have been killed; 0% means that no spider mites have been killed.

[8] = test system: Spodoptera frugiperda; assay: Spodoptera frugiperda spray test; conditions: application rate 100 g/ha, spray on maize leaf discs, caterpillars, after 7 days
Protocol: Spodoptera frugiperda—Spray Test [table] To produce a suitable active ingredient formulation, 1 part by weight of active ingredient is dissolved with the specified parts by weight of solvent and made up to the desired concentration with water containing an emulsifier concentration of 1000 ppm. To produce further test concentrations, the formulation is diluted with emulsifier-containing water. Leaf discs of maize (Zea mays) are sprayed with an active ingredient formulation of the desired concentration and, after drying, populated with caterpillars of the armyworm (Spodoptera frugiperda). After 7 days, the efficacy in % is determined. 100% means that all the caterpillars have been killed; 0% means that no caterpillar has been killed.

[9] = test system: Rhipicephalus sanguineus; assay: Rhipicephalus sanguineus in vitro contact test with adult brown dog ticks; conditions: application rate 5 μg/cm^2 (=500 g/ha), after 48 h
Protocol: Rhipicephalus sanguineus—In Vitro Contact Test with Adult Brown Dog Ticks For the coating of the test tubes, 9 mg of active ingredient are first dissolved in 1 ml of acetone p.a. and then diluted to the desired concentration with acetone p.a. 250 µl of the solution are distributed homogeneously on the inner walls and the base of a 25 ml glass tube by turning and rocking on an orbital shaker (rocking rotation at 30 rpm for 2 h). With 900 ppm of active ingredient solution and internal surface area 44.7 cm^2, given homogeneous distribution, an area-based dose of 5 μg/cm^2 is achieved. After the solvent has evaporated off, the tubes are populated with 5-10 adult dog ticks (Rhipicephalus sanguineus), sealed with a perforated plastic lid and incubated in a horizontal position in darkness at room temperature and ambient humidity. After 48 h, efficacy is determined. To this end, the ticks are knocked to the base of the tube and incubated on a hotplate at 45-50° C. for a maximum 5 min. Ticks which remain motionless at the base or move in such an uncoordinated manner that they cannot attempt to escape from the heat by climbing upward are considered to be dead or moribund. […] 100% efficacy means that all the ticks were dead or moribund. 0% efficacy means that no ticks were harmed.

[10] = test system: Myzus persicae; assay: Myzus persicae spray test; conditions: foliar, 120 h, application rate 100 g/ha, spray on Chinese cabbage leaf discs, after 5 days, read-out: efficacy in %
Protocol: Myzus persicae—Spray Test [table] To produce a suitable active ingredient formulation, 1 part by weight of active ingredient is dissolved with the specified parts by weight of solvent and made up to the desired concentration with water containing an emulsifier concentration of 1000 ppm. To produce further test concentrations, the formulation is diluted with emulsifier-containing water. Discs of Chinese cabbage leaves (Brassica pekinensis) infested by all stages of the green peach aphid (Myzus persicae) are sprayed with an active ingredient formulation of the desired concentration. After 5 days, the efficacy in % is determined. 100% means that all the aphids have been killed; 0% means that no aphids have been killed.

SMILES | efficacy (kill in %) [1] [%] | efficacy (fleas dead or moribund) [2] [%] | pest or weed control at 4 ppm [3] [%] | pest or weed control at 20 ppm [3] [%] | efficacy (kill in %) [4] [%] | efficacy (kill in %) ([5]; application rate 20 ppm) [%] | efficacy (kill in %) ([5]; application rate 100 ppm) [%] | pest or weed control at 100 g/ha [6] [%] | efficacy in % ([7]; application rate 100 g/ha) [%] | efficacy in % [8] [%] | pest or weed control at 0.8 ppm [3] [%] | efficacy (ticks dead or moribund) [9] [%] | efficacy in % ([7]; application rate 20 g/ha) [%] | pest or weed control at 100 g/ha [10] [%]
CCSc1c(-c2nc3cc(C(F)(F)F)cnc3n2C)nc(C2CC2)n1C [Example I-1, 2-[2-Cyclopropyl-5-(ethylsulfanyl)-1-methyl-1H-imidazol-4-yl]-3-methyl-6-(trifluoromethyl)-3H-imidazo[4,5-b]pyridine] | 100 | 100 | 100 | 100 | 90 | 100 | 100 | 100 | 100 |  |  |  |  | 
CCS(=O)(=O)c1c(-c2nc3cc(C(F)(F)F)cnc3n2C)nc(C2CC2)n1C [Example I-2, 2-[2-Cyclopropyl-5-(ethylsulfonyl)-1-methyl-1H-imidazol-4-yl]-3-methyl-6-(trifluoromethyl)-3H-imidazo[4,5-b]pyridine] | 100 | 100 | 100 | 100 | 100 | 90 | 80 | 100 |  | 100 | 100 | 100 | 90 | 90
CCS(=O)(=O)c1c(-c2nc3cc(OC(F)(F)F)cnc3n2C)nc(C2CC2)n1C [Example I-6] |  |  | 100 |  |  |  |  | 100 | 90 | 100 | 100 |  |  | 100
CCS(=O)(=O)c1c(-c2nc3cc([S+]([O-])C(F)(F)F)cnc3n2C)nc(C2CC2)n1C (stereo not shown) [Example I-7] | 100 |  |  |  | 100 | 80 |  | 100 |  | 100 | 100 |  |  | 90
CCS(=O)(=O)c1c(-c2nc3cc(S(=O)(=O)C(F)(F)F)cnc3n2C)nc(C2CC2)n1C [Example I-8] | 100 |  | 100 |  | 100 | 80 |  | 100 |  | 100 | 100 |  |  | 
CCS(=O)(=O)c1c(-c2nc3cc(C(F)(F)F)ncc3n2C)nc(C2CC2)n1C [Example I-9] |  |  | 100 |  |  |  |  | 100 |  |  | 100 |  |  | 
CCn1c(C2CC2)nc(-c2nc3cc(C(F)(F)F)ncc3n2C)c1S(=O)(=O)CC [Example I-10] |  |  | 100 |  |  |  |  | 100 |  | 83 | 100 |  |  | 
CCS(=O)(=O)c1c(-c2nc3cc(C(F)(F)F)ncc3n2C)nc(C2CC2)n1C(C)C [Example I-11] | 100 |  | 100 |  | 90 |  |  | 100 |  |  | 100 |  |  | 90
CCS(=O)(=O)c1c(-c2nc3cc(SC(F)(F)F)cnc3n2C)nc(C2CC2)n1C [Example I-12] |  |  | 100 |  |  |  |  | 100 |  | 83 | 100 |  |  | 100
CCS(=O)(=O)c1c(-c2nc3cc(C(F)(F)F)ncc3n2C)nc(C2CCCCC2)n1C [Example I-13, 2-[2-Cyclohexyl-5-(ethylsulfonyl)-1-methyl-1H-imidazol-4-yl]-3-methyl-6-(trifluoromethyl)-3H-imidazo[4,5-c]pyridine] |  |  | 100 |  |  |  |  |  |  |  |  |  |  | 
CCS(=O)(=O)c1c(-c2nc3cc(C(F)(F)F)ncc3n2C)nc([C@H]2CC[C@@H](C(F)(F)F)CC2)n1C [Example I-15] |  |  | 100 |  |  |  |  | 100 |  |  | 90 |  |  | 90
CCS(=O)(=O)c1c(-c2nc3cc(C(F)(F)F)ncc3n2C)nc([C@H]2CC[C@@H](C)CC2)n1C [Example I-16] |  |  | 90 |  |  |  |  |  | 90 |  | 90 |  |  | 90
CCS(=O)(=O)c1c(-c2nc3cc(C(F)(F)F)nnc3n2C)nc(C2CC2)n1C [Example I-17] |  |  | 100 |  |  |  |  | 100 |  |  | 100 |  |  | 90
